± gives the expanded uncertainty stated by the source.
Legend:
[1] = 101 kPa, Liquid; for speed of sound: Sing-around technique in a fixed-path interferometer
[2] = xn = mol fraction of the nth substance listed; conditions: 101 kPa, Liquid, x2 = 0; for speed of sound: Sing-around technique in a fixed-path interferometer

Compound | kinematic viscosity ([1]; 303.15 K) | mass density ([1]; 303.15 K) | speed of sound ([1]; 303.15 K) | kinematic viscosity ([1]; 313.15 K) | mass density ([1]; 313.15 K) | speed of sound ([1]; 313.15 K) | speed of sound ([2]; 303.15 K) | kinematic viscosity ([2]; 303.15 K) | mass density ([2]; 303.15 K) | speed of sound ([2]; 313.15 K) | kinematic viscosity ([2]; 313.15 K) | mass density ([2]; 313.15 K)
CCCCCCCO [heptan-1-ol] | 6.19e-06 ± 7.1e-08 m2/s | 814.94 ± 0.57 kg/m3 | 1312 ± 3 m/s | 4.59e-06 ± 5.5e-08 m2/s | 807.77 ± 0.6 kg/m3 | 1278 ± 3 m/s | – | – | – | – | – | –
CCCCCCCO [heptan-1-ol] + ClC(Cl)Cl | – | – | – | – | – | – | 1312 ± 3 m/s | 6.19e-06 ± 7.1e-08 m2/s | 814.94 ± 0.57 kg/m3 | 1278 ± 3 m/s | 4.59e-06 ± 5.5e-08 m2/s | 807.77 ± 0.6 kg/m3
CCCCCCO [hexan-1-ol] | 4.68e-06 ± 5.6e-08 m2/s | 811.65 ± 0.57 kg/m3 | 1289 ± 3 m/s | 3.63e-06 ± 4.4e-08 m2/s | 804.24 ± 0.6 kg/m3 | 1256 ± 3 m/s | – | – | – | – | – | –
CCCCCCO [hexan-1-ol] + ClC(Cl)Cl | – | – | – | – | – | – | 1289 ± 3 m/s | 4.68e-06 ± 5.6e-08 m2/s | 811.65 ± 0.57 kg/m3 | 1256 ± 3 m/s | 3.63e-06 ± 4.4e-08 m2/s | 804.24 ± 0.6 kg/m3
ClC(Cl)Cl [trichloromethane] | 3.63e-07 ± 8e-09 m2/s | 1469.21 ± 1.1 kg/m3 | 969 ± 2 m/s | 3.39e-07 ± 8e-09 m2/s | 1449.74 ± 1.1 kg/m3 | 934 ± 2 m/s | – | – | – | – | – | –

Further lines, results first:

kinematic viscosity ([1]; 303.15 K) | mass density ([1]; 303.15 K) | speed of sound ([1]; 303.15 K) | kinematic viscosity ([1]; 313.15 K) | mass density ([1]; 313.15 K) | speed of sound ([1]; 313.15 K) | speed of sound ([2]; 303.15 K) | kinematic viscosity ([2]; 303.15 K) | mass density ([2]; 303.15 K) | speed of sound ([2]; 313.15 K) | kinematic viscosity ([2]; 313.15 K) | mass density ([2]; 313.15 K) | Compound
3.73e-06 ± 4.2e-08 m2/s | 808.6 ± 0.44 kg/m3 | 1264 ± 3 m/s | 2.89e-06 ± 3.3e-08 m2/s | 800.99 ± 0.48 kg/m3 | 1228 ± 3 m/s | – | – | – | – | – | – | CCCCCO [pentan-1-ol]
– | – | – | – | – | – | 1264 ± 3 m/s | 3.73e-06 ± 4.2e-08 m2/s | 808.6 ± 0.44 kg/m3 | 1228 ± 3 m/s | 2.89e-06 ± 3.3e-08 m2/s | 800.99 ± 0.48 kg/m3 | CCCCCO [pentan-1-ol] + ClC(Cl)Cl
